For this assay, the target named is QPCTL (Homo sapiens (Human), UniProt Q9NXS2). The assay can be described thus: QPCTL inhibition, SensoLyte Green Glutaminyl Cyclase Activity Assay. Type of assay: biochemical. The settings on record: 0.8 nM 2x enzyme solution, 45 min at 37° C., 50 mM Tris pH 8.0, 1% DMSO. The method, then:
Preparation of working solution: 2×Glutaminyl Cyclase substrate was diluted in assay buffer to […]. 2×enzyme solution and QPCTL was diluted in assay buffer to 0.8 nM. Glutaminyl Cyclase Developer was diluted in assay buffer to 1×(containing 10 mM 1-Benzyl-Imidazole). Serial dilution of test compounds was performed in DMSO. The final DMSO concentration in 100 μl reaction was 1%. The assay buffer was 50 mM Tris, pH 8.0, 0.01% BSA.
Procedure: 50 μL of 2×Glutaminyl Cyclase substrate solution was added into the assay plate followed by 50 μL of 2×enzyme solution. The plate was centrifuged for 1 min at 1000 rmp. Next the plate was incubated for 45 minutes at 37° C. This was followed by the additional of 50 μL of the prepared Glutaminyl Cyclase developer and incubated for additional 30 min at 37° C. Results were read on SpectraMax Paradigm detecting with emission at Ex/Em=490 nm/520 nm.
A Z′ value was calculated for each assay plate. The Z′ value must be >0.5 or the plate was disqualified. […] Results were calculated using GraphPad Prism 7 software is used for IC50 determination.
Chain of QPCTL (Q9NXS2 whole entry, species assumed): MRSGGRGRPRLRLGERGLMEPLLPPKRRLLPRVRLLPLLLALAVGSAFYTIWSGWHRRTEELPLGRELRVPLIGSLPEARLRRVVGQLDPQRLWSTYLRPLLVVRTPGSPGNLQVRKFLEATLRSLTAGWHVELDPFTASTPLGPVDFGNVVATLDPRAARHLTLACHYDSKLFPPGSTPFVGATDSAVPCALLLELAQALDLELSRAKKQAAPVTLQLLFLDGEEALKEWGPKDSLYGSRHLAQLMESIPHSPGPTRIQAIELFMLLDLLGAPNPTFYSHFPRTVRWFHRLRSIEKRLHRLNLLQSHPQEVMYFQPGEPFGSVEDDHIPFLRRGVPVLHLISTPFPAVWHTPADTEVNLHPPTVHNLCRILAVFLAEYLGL
A word on the IC50: it is the point on the concentration scale where inhibition reaches its midpoint. Higher therefore signals weaker potency in that assay. In turn, `O=C1[C@@H](C2CC2)[C@@H](c2c(F)cc(-c3cnccn3)cc2F)N1c1ccc2[nH]cnc2c1` [Compound 53A] showed an IC50 greater than 1000 nM.
`Cn1cc(-c2cc(F)c([C@@H]3[C@H](O)C(=O)N3c3ccc4[nH]cnc4c3)c(F)c2)cn1` (single isomer, unassigned) [Compound 15A] came in with an IC50 greater than 1000 nM.
The compound `O=C1[C@H](C2CC2)[C@H](c2ccc(-c3cnn(C(F)(F)F)c3)cc2C(F)(F)F)N1c1ccc2[nH]cnc2c1` (single isomer, unassigned) [Compound 76B] gave an IC50 greater than 1000 nM.
Next, `Cc1nc(-n2cnc(C(F)(F)F)c2)ccc1[C@@H]1[C@H](C2CC2)C(=O)N1c1ccc2[nH]cnc2c1` (single isomer, unassigned) [Compound 72A]: greater than 1000 nM.
In turn, `O=C1[C@@H](C2CC2)[C@@H](c2c(F)cc(-c3ccc(C(F)(F)F)nn3)cc2F)N1c1ccc2[nH]cnc2c1` [Compound 52A] displayed an IC50 of 25 to 1000 nM.
The same measure for `CC1(C)C(=O)N(c2ccc3[nH]cnc3c2)C1c1c(F)cc(OCCC(F)F)cc1F` (racemic) [Compound 2, 1-(1H-benzo[d]imidazol-5-yl)-4-(4-(3,3-difluoropropoxy)-2,6-difluorophenyl)-3,3-dimethylazetidin-2-one]: greater than 1000 nM.
As to `O=C1[C@@H](O)[C@H](c2c(F)cc(-c3cnn(C(F)(F)F)c3)cc2F)N1c1ccc2[nH]cnc2c1` (racemic) [Compound 16TR], the IC50 fell in the range of 25 to 1000 nM.
For the compound `O=C1[C@H](O)[C@H](c2c(F)cc(-c3cnn(C(F)(F)F)c3)cc2F)N1c1ccc2[nH]cnc2c1` (racemic) [Compound 16CR], the IC50 is less than 2 nM.
Take `Cc1cc([C@@H]2[C@H](C3CC3)C(=O)N2c2ccc3[nH]cnc3c2)ccc1-c1cnn(C(F)(F)F)c1` (single isomer, unassigned) [Compound 57A]: the IC50 fell in the range of 25 to 1000 nM.
Next, `O=C1[C@@H](C2CC2)[C@@H](c2ccc(-c3cnn(C(F)(F)F)c3)cn2)N1c1ccc2[nH]cnc2c1` (single isomer, unassigned) [Compound 46A]: 25 to 1000 nM; `C=C1C(=O)N(c2ccc3[nH]cnc3c2)[C@@H]1c1c(F)cc(OCCC(F)F)cc1F` (single isomer, unassigned) [Compound 22A]: 25 to 1000 nM.
In turn, `Cc1cc(-n2cnc(C(F)(F)F)c2)ccc1[C@@H]1[C@H](C2CC2)C(=O)N1c1ccc2[nH]cnc2c1` (single isomer, unassigned) [Compound 74A] gave a concentration for half-maximal inhibition (IC50) of 25 to 1000 nM.
In the case of `Cc1cc(-c2cnn(C(F)(F)F)c2)ncc1[C@@H]1[C@H](C2CC2)C(=O)N1c1ccc2[nH]cnc2c1` (single isomer, unassigned) [Compound 66A], the IC50 lay within 25 to 1000 nM.
Compound `Cc1ccc(-c2ccc([C@@H]3[C@H](C4CC4)C(=O)N3c3ccc4[nH]cnc4c3)c(C)n2)nn1` (single isomer, unassigned) [Compound 71A] showed an IC50 of 25 to 1000 nM.
In the case of `C[C@@H]1C(=O)N(c2ccc3[nH]cnc3c2)[C@H]1c1c(F)cc(OCCC2CC2)cc1F` (racemic) [Compound 34TR, (Trans and racemic)-1-(1H-benzo[d]imidazol-5-yl)-4-(4-(2-cyclopropylethoxy)-2,6-difluorophenyl)-3-methylazetidin-2-one], the half-maximal inhibitory concentration (IC50) lay in the range of 25 to 1000 nM.
For `O=C1[C@@H](C2CC2)[C@@H](c2c(F)cc(-c3cnn(C(F)(F)F)c3)cc2F)N1c1ccc2[nH]cnc2c1` (single isomer, unassigned) [Compound 35A], the IC50 was in the range of 25 to 1000 nM.
Take `O=C1[C@H](O)[C@H](c2c(F)cc(-c3cnn(C(F)F)c3)cc2F)N1c1ccc2[nH]cnc2c1` (racemic) [Compound 25CR]: the half-maximal inhibitory concentration (IC50) is less than 2 nM.
Take `O=C1[C@@H](C2CC2)[C@@H](c2ccc(-c3cnn(C(F)(F)F)c3)cc2C(F)(F)F)N1c1ccc2[nH]cnc2c1` (single isomer, unassigned) [Compound 76A]: the IC50 was less than 2 nM.
As for `O=C1[C@@H](O)[C@H](c2c(F)cc(OCCC(F)F)cc2F)N1c1ccc2[nH]cnc2c1` (racemic) [Compound 8TR, (trans and racemic)-1-(1H-benzo[d]imidazol-5-yl)-4-(4-(3,3-difluoropropoxy)-2,6-difluorophenyl)-3-hydroxyazetidin-2-one], the concentration for half-maximal inhibition (IC50) was in the range of 25 to 1000 nM.
Compound `Cc1nc(-c2cnn(C(F)(F)F)c2)ccc1[C@@H]1[C@H](C2CC2)C(=O)N1c1ccc2[nH]cnc2c1` (single isomer, unassigned) [Compound 68A] registered an IC50 of 25 to 1000 nM.
`Cc1cc(-c2cnn(C(F)(F)F)c2)ccc1[C@H]1[C@@H](C2CC2)C(=O)N1c1ccc2[nH]cnc2c1` (single isomer, unassigned) [Compound 56B] registered an IC50 of less than 2 nM.
The same measure for `CC[C@@H]1C(=O)N(c2ccc3[nH]cnc3c2)[C@@H]1c1c(F)cc(-c2cnn(C(F)(F)F)c2)cc1F` (single isomer, unassigned) [Compound 51A]: 25 to 1000 nM; for `Cc1cc(-n2cnc(C(F)(F)F)c2)ncc1[C@@H]1[C@H](C2CC2)C(=O)N1c1ccc2[nH]cnc2c1` (single isomer, unassigned) [Compound 73A]: 25 to 1000 nM; for `O=C1[C@H](C2CC2)[C@H](c2c(F)cc(-c3ccc(C(F)(F)F)nn3)cc2F)N1c1ccc2[nH]cnc2c1` (single isomer, unassigned) [Compound 52B]: less than 2 nM.
Regarding `O=C1[C@@H](C2CC2)[C@@H](c2c(F)cc(-n3ccc(C(F)(F)F)n3)cc2F)N1c1ccc2[nH]cnc2c1` (single isomer, unassigned) [Compound 48A], the IC50 fell in the range of 2 to 25 nM.
Next, `C[C@@H]1C(=O)N(c2ccc3[nH]cnc3c2)[C@@H]1c1c(F)cc(-c2cnn(C(F)(F)F)c2)cc1F` (single isomer, unassigned) [Compound 14A]: 25 to 1000 nM; `Cc1ncc(-c2cc(F)c([C@H]3[C@@H](C)C(=O)N3c3ccc4[nH]cnc4c3)c(F)c2)s1` (racemic) [Compound 11CR, (cis and racemic)-1-(1H-benzo[d]imidazol-5-yl)-4-(2,6-difluoro-4-(2-methylthiazol-5-yl)phenyl)-3-methylazetidin-2-one]: 2 to 25 nM.
Turning to `Cc1cc([C@H]2[C@@H](C3CC3)C(=O)N2c2ccc3[nH]cnc3c2)ccc1-c1cnn(C(F)(F)F)c1` (single isomer, unassigned) [Compound 57B], the IC50 was less than 2 nM.
`O=C1[C@H](C2CC2)[C@H](c2ccc(-c3cnn(C(F)(F)F)c3)cc2)N1c1ccc2[nH]cnc2c1` (single isomer, unassigned) [Compound 55B] showed an IC50 of less than 2 nM.
The same measure for `C[C@@H]1C(=O)N(c2ccc3[nH]cnc3c2)[C@H]1c1c(F)cc(OCCC(F)F)cc1F` (single isomer, unassigned) [Compound 7A]: 25 to 1000 nM.
In turn, `CC1C(=O)N(c2ccc3[nH]cnc3c2)C1c1c(F)cc(-c2cnn(C(F)(F)F)c2)cc1F` (racemic) [Compound 14, (cis and racemic)-1-(1H-benzo[d]imidazol-5-yl)-4-(2,6-difluoro-4-(1-(trifluoromethyl)-1H-pyrazol-4-yl)phenyl)-3-methyl azetidin-2-one] had an IC50 of 2 to 25 nM.
Consider `C[C@@H]1C(=O)N(c2ccc3[nH]cnc3c2)[C@@H]1c1c(F)cc(-c2cnn(C(F)F)c2)cc1F` (single isomer, unassigned) [Compound 17A], for which the IC50 fell in the range of 25 to 1000 nM.
`O=C1[C@H](C2CC2)[C@H](c2c(F)cc(-n3cnc(C(F)(F)F)c3)cc2F)N1c1ccc2[nH]cnc2c1` (single isomer, unassigned) [Compound 61B] had an IC50 of less than 2 nM.
`O=C1[C@@H](O)[C@H](c2c(F)cc(-c3cnn(C(F)F)c3)cc2F)N1c1ccc2[nH]cnc2c1` (racemic) [Compound 25TR] returned a half-inhibitory concentration (IC50) of 2 to 25 nM.
As for `Cn1cc(-c2cc(F)c([C@H]3[C@@H](O)C(=O)N3c3ccc4[nH]cnc4c3)c(F)c2)cn1` (single isomer, unassigned) [Compound 15B], the half-inhibitory concentration (IC50) was less than 2 nM.
Regarding `O=C1[C@H](CC(F)(F)F)[C@H](c2c(F)cc(-c3cnn(C(F)(F)F)c3)cc2F)N1c1ccc2[nH]cnc2c1` (single isomer, unassigned) [Compound 54B], the IC50 is less than 2 nM.
Take `O=C1[C@H](C2CC2)[C@H](c2c(F)cc(-c3cnn(C(F)(F)F)c3)cc2F)N1c1ccc2[nH]cnc2c1` (single isomer, unassigned) [Compound 35B]: the concentration for half-maximal inhibition (IC50) was less than 2 nM.
`O=C1[C@H](C2CC2)[C@H](c2c(F)cc(-c3cnccn3)cc2F)N1c1ccc2[nH]cnc2c1` (single isomer, unassigned) [Compound 53B]: the IC50 is less than 2 nM.
As to `O=C1[C@@H](C2CC2)[C@@H](c2ccc(-c3cnn(C(F)(F)F)c3)nc2)N1c1ccc2[nH]cnc2c1` (single isomer, unassigned) [Compound 43A], the IC50 was in the range of 25 to 1000 nM.
The same measure for `O=C1[C@@H](C2CC2)[C@@H](c2c(F)cc(C3CC3)cc2F)N1c1ccc2[nH]cnc2c1` (single isomer, unassigned) [Compound 69A]: 25 to 1000 nM; for `O=C1[C@H](C2COC2)[C@H](c2c(F)cc(OCCC(F)F)cc2F)N1c1ccc2[nH]cnc2c1` (single isomer, unassigned) [Compound 44B]: less than 2 nM; for `Cc1cc(-c2ccc(C(F)(F)F)nn2)ccc1[C@H]1[C@@H](C2CC2)C(=O)N1c1ccc2[nH]cnc2c1` (single isomer, unassigned) [Compound 67B]: less than 2 nM.
Regarding `Cc1ccc(-c2ccc([C@H]3[C@@H](C4CC4)C(=O)N3c3ccc4[nH]cnc4c3)c(C)n2)nn1` (single isomer, unassigned) [Compound 71B], the IC50 was less than 2 nM.

The record behind these values is US11834440B2, “Beta-lactam derivatives for the treatment of diseases” (Insilico Medicine IP Limited, priority 2021, dated 2023).
